Tests used:
[1] = system: relapsed or progressive advanced malignancies; experiment: Efficacy: best overall response as determined by investigator (RECIST 1.1 / IMWG-URC); type: in vivo, human; settings: for Best overall response: complete response / Best overall response: partial response / Best overall response: progressive disease / Best overall response: stable disease / Best overall response: not evaluable: response-evaluable population
Procedure: (§1) Blood samples were collected to measure PK and plasma concentration of carfilzomib and its major metabolites (PR-389/M14, PR-413/M15, and PR-519/M16). Samples were collected on day 16 of cycle 1 and day 1 of cycle 2 (or on subsequent infusion days when the intended dose levels were administered) before infusion; at 15 min after start of infusion; within 2 min before end of infusion; and at 5, 15, and 30 min (±2 min for each); and at 1, 2, and 4 h (±5 min for each) after end of the infusion (Fig. 1). Safety was assessed throughout the study and included the monitoring of adverse events (AEs) using National Cancer Institute-Common Terminology Criteria for Adverse Events, version 4.03 (NCI-CTCAE v4.03), clinical laboratory evaluations, and vital signs; echocardiograms and physical examinations were also performed. The exact type and frequency of disease or tumor response assessments depended upon tumor type and was assessed by the investigator using the appropriate measure for the underlying malignancy, including Response Evaluation Criteria in Solid Tumours version 1.1.
For multiple myeloma patients, efficacy was assessed on day 1 of each cycle during treatment. For solid tumor patients, efficacy was assessed on day 1 of every other cycle [i.e., on day 1 (±7 days) of cycles 3, 5, 7, 9, etc.] during treatment.
(§2) Safety was assessed for patients who received any carfilzomib dose. AEs were mapped to a preferred term and system organ class using MedDRA and were graded using the NCI-CTCAE v4.03. ORR was summarized along with 95% exact binomial CIs by cohorts.

[2] = Safety: treatment-emergent adverse events, discontinuations and deaths (NCI-CTCAE v4.03) in patients by hepatic function; type: in vivo, human
Procedure: as §1, §2

[3] = cited from earlier work
Text: Carfilzomib is an irreversible, proteasome inhibitor approved in the United States of America (USA) and Europe for the treatment of relapsed or refractory multiple myeloma in combination with lenalidomide + dexamethasone or with dexamethasone alone. […] In the normal hepatic function cohort, one outlier contributed to the extremely high variability. […] [6].

[4] = Plasma pharmacokinetics of carfilzomib and its major metabolites after 30-min IV infusion in patients with normal or impaired hepatic function; settings: human, in vivo
Procedure: This was a phase 1, multicenter, open-label, nonrandomized, comparative PK study of carfilzomib in patients with normal hepatic function or mild-to-moderate hepatic impairment. The study was conducted at 12 sites in the USA, United Kingdom, France, and the Netherlands. […] Exploratory objectives included evaluation of overall response rate (ORR) and duration of response (DOR).
Patients received carfilzomib as a 30-min IV infusion on days 1, 2, 8, 9, 15, and 16 of 28-day cycles (Fig. 1). All patients were to receive doses of 20 mg/m^2 on days 1 and 2 of cycle 1. […]
as §1, with “Samples were collected on day 16 of cycle 1 and day 1 of cycle 2 (or on subsequent infusion days when the intended dose levels were administered) before infusion; at 15 min after start of infusion; within 2 min before end of infusion; and at 5, 15, and 30 min (±2 min for each); and at 1, 2, and 4 h (±5 min for each) after end of the infusion (Fig. 1).” left out, “1.1. […]” for “1.1.”

[5] = normal hepatic function, n = 10
[6] = normal hepatic function, n = 11
[7] = IV administration, patients with solid tumors

## CC(C)C[C@H](NC(=O)[C@H](CCc1ccccc1)NC(=O)CN1CCOCC1)C(=O)N[C@@H](Cc1ccccc1)C(=O)N[C@@H](CC(C)C)C(=O)[C@@]1(C)CO1 [carfilzomib]
[1]; mild impairment, n = 15
  Best overall response: complete response: 0 (0.0) n (%)
  Best overall response: partial response: 0 (0.0) n (%)
  Best overall response: progressive disease: 12 (80.0) n (%)
  Best overall response: stable disease: 1 (6.7) n (%)
[1]; moderate impairment, n = 9
  Best overall response: complete response: 0 (0.0) n (%)
  Best overall response: not evaluable: 3 (33.3) n (%)
  Best overall response: partial response: 0 (0.0) n (%)
  Best overall response: progressive disease: 4 (44.4) n (%)
  Best overall response: stable disease: 2 (22.2) n (%)
[1]; [5]
  Best overall response: complete response: 0 (0.0) n (%)
  Best overall response: not evaluable: 0 (0.0) n (%)
  Best overall response: partial response: 1 (10.0) n (%)
  Best overall response: progressive disease: 5 (50.0) n (%)
  Best overall response: stable disease: 4 (40.0) n (%)
[1]; one multiple myeloma patient with normal hepatic function
  DOR of partial response: ≥ 3 months
[1]; overall study population, n = 34, 95% CI 0.1–15.3%
  ORR: 2.9%
[1]; total, n = 34
  Best overall response: complete response: 0 (0.0) n (%)
  Best overall response: not evaluable: 5 (14.7) n (%)
  Best overall response: partial response: 1 (2.9) n (%)
  Best overall response: progressive disease: 21 (61.8) n (%)
  Best overall response: stable disease: 7 (20.6) n (%)
[2]; both in mild hepatic impairment group: gastrointestinal hemorrhage and acute respiratory distress syndrome
  Deaths considered related to treatment: Two
[2]; human, in vivo
  AE resulting in treatment discontinuation: increased blood bilirubin: 2 patients
  AE resulting in treatment discontinuation: pneumonitis: one
  Grade ≥3 AEs considered related to treatment, patients: 33%
  Grade ≥3 AEs, patients: 76%
  Serious AE: acute kidney injury: three
  Serious AE: anemia: two
  Serious AE: ascites: three
  Serious AE: hepatic encephalopathy: two
  Serious AE: increased blood bilirubin: two
  Serious AE: lower respiratory tract infection: two
  Serious AE: pneumonia: two
  Serious AE: sepsis: three
  Treatment-emergent AEs, patients: 98%
[2]; mild impairment, n = 17
  Treatment discontinuation due to death: 2 n
  Treatment discontinuation due to disease progression: 13 n
[2]; moderate impairment, n = 14
  Treatment discontinuation due to death: 1 n
  Treatment discontinuation due to disease progression: 7 n
[2]; [6]
  Treatment discontinuation due to death: 1 n
  Treatment discontinuation due to disease progression: 7 n
[2]; safety population
  Deaths within 30 days after the last dose: Nine
[2]; severe impairment, n = 4
  Treatment discontinuation due to death: 2 n
  Treatment discontinuation due to disease progression: 2 n
[2]; total, N = 46
  Treatment discontinuation due to death: 6 n
  Treatment discontinuation due to disease progression: 29 n
[2]; two progressive disease, two fatal AEs unrelated to treatment
  Deaths among severe hepatic impairment patients: four
[3]; 56 mg/m^2, geometric mean (geometric CV%)
  Cmax, historical data: 2079 (44%) ng/mL
[3]; [7]
  Estimated clearance: high and exceeds hepatic blood flow
  Time within which most of the drug is eliminated from the plasma compartment: ≤ 30 min
[3]; population PK analysis, mild N = 143, normal N = 474
  Difference in PK parameters, mild hepatic impairment vs normal hepatic function: no statistically significant differences
[4]
  Higher carfilzomib AUC vs. normal hepatic function patients: 20–50%
  Mean T1/2: 30 to 42 min
